{"source": "ChEMBL document CHEMBL4414641", "about": "“Chemical Constituents of Anneslea fragrans and Their Antiausterity Activity against the PANC-1 Human Pancreatic Cancer Cell Line” (J Nat Prod, 2019)", "key": {"[1]": {"system": "PANC-1", "assay": "Anti-austerity activity against nutrient-deprived human PANC1 cells assessed as cell death incubated for 24 hrs by WST-8 assay", "assay_type": "functional"}, "[2]": {"system": "PANC-1", "assay": "Cytotoxicity against nutrient-rich DMEM cultured human PANC1 cells at PC50 incubated for 24 hrs by WST-8 assay", "assay_type": "cell-based", "details": "panc-1, 24 h"}, "[3]": {"system": "PANC-1", "assay": "Inhibition of cell migration in human PANC1 cells assessed as open wound area at 100 uM cultured in nutrient rich DMEM medium measured after 48 hrs by quantitative real-time imaging based wound healing assay (reference value: 12%)", "assay_type": "functional", "design": "scale not given: the % may be the effect or the level left"}, "[4]": {"system": "PANC-1", "assay": "Inhibition of cell migration in human PANC1 cells assessed as open wound area at 100 uM cultured in nutrient rich DMEM medium measured after 24 hrs by quantitative real-time imaging based wound healing assay relative to control", "assay_type": "functional", "design": "scale not given: the % may be the effect or the level left"}, "[5]": {"system": "PANC-1", "assay": "Inhibition of cell migration in human PANC1 cells assessed as decrease in velocity of cell migration at 100 uM cultured in nutrient rich DMEM medium measured every 15 mins for 72 hrs by quantitative real-time imaging analysis", "assay_type": "functional, cell-based"}, "[6]": {"system": "PANC-1", "assay": "Inhibition of cell migration in human PANC1 cells at 100 uM cultured in nutrient rich DMEM medium measured every 15 mins for 72 hrs by quantitative real-time imaging analysis", "assay_type": "functional, cell-based"}, "[7]": {"system": "PANC-1", "assay": "Inhibition of cell migration in human PANC1 cells assessed as open wound area at 100 uM cultured in nutrient rich DMEM medium measured after 72 hrs by quantitative real-time imaging based wound healing assay (reference value: 5%)", "assay_type": "functional", "design": "scale not given: the % may be the effect or the level left"}, "[8]": {"system": "PANC-1", "assay": "Inhibition of cell migration in human PANC1 cells assessed as closed wound area at 100 uM cultured in nutrient rich DMEM medium measured within 24 hrs by quantitative real-time imaging based wound healing assay (reference value: 100%)", "assay_type": "functional", "design": "scale not given: the % may be the effect or the level left"}}, "note": "Calls of active or inactive are those of the source. No cut-off for these calls is given here."}
{"compound": "COc1cc(C[C@H]2C(=O)OC[C@@H]2Cc2ccc(OC)c(OC)c2)ccc1O", "note": "[ARCTIGENIN]", "values": [{"measurement": "PC50", "setting": "[1]", "value": 0.7, "unit": "µM"}, {"measurement": "Activity", "setting": "[2]", "value": "Non-Toxic"}]}
{"compound": "O=C(CCc1ccc(O)c(O)c1)c1ccc(O[C@@H]2O[C@H](CO)[C@@H](O)[C@H](O)[C@H]2O)cc1O", "values": [{"measurement": "PC50", "setting": "[1]", "value": 10.4, "unit": "µM"}, {"measurement": "Activity", "setting": "[2]", "value": "Non-Toxic"}]}
{"compound": "CC1(C)OC[C@H]2O[C@@H](Oc3ccc(C(=O)CCc4ccc(O)cc4)c(O)c3)[C@H](O)[C@@H](O)[C@@H]2O1", "values": [{"measurement": "PC50", "setting": "[1]", "value": 60.9, "unit": "µM"}, {"measurement": "Activity", "setting": "[3]", "value": 81, "unit": "%"}, {"measurement": "Activity", "setting": "[2]", "value": "Non-Toxic"}, {"measurement": "Activity", "setting": "[4]", "value": 93, "unit": "%"}, {"measurement": "inhibition", "setting": "[5]", "value": "Active"}, {"measurement": "inhibition", "setting": "[6]", "value": "Active"}, {"measurement": "Activity", "setting": "[7]", "value": 72, "unit": "%"}, {"measurement": "Activity", "setting": "[8]", "value": 38, "unit": "%"}]}
{"compound": "Oc1cc(O)c2c(c1)O[C@H](c1ccc(O)c(O)c1)[C@H](O)C2", "note": "[(-)-EPICATECHIN]", "values": [{"measurement": "PC50", "setting": "[1]", "value": 14.7, "unit": "µM"}, {"measurement": "Activity", "setting": "[2]", "value": "Non-Toxic"}]}
{"compound": "COc1cc2oc(=O)ccc2cc1O", "note": "[ISOSCOPOLETIN]", "values": [{"measurement": "PC50", "setting": "[1]", "value": 26.9, "unit": "µM"}, {"measurement": "Activity", "setting": "[2]", "value": "Non-Toxic"}]}
{"compound": "O=C(CCc1ccc(O)c(O)c1)c1ccc(O)cc1O", "values": [{"measurement": "Activity", "setting": "[2]", "value": "Non-Toxic"}]}
{"compound": "O=C(CCc1ccc(O)cc1)c1ccc(O)cc1O[C@@H]1O[C@H](CO)[C@@H](O)[C@H](O)[C@H]1O", "values": [{"measurement": "PC50", "setting": "[1]", "value": ">100", "unit": "µM"}, {"measurement": "Activity", "setting": "[2]", "value": "Non-Toxic"}]}
{"compound": "O=C(/C=C/c1ccc(O)c(O)c1)c1ccc(O)cc1O", "note": "[BUTEIN]", "values": [{"measurement": "PC50", "setting": "[1]", "value": 67, "unit": "µM"}, {"measurement": "Activity", "setting": "[2]", "value": "Non-Toxic"}]}
{"compound": "C[C@@H]1O[C@@H](OC[C@H]2O[C@@H](Oc3c(-c4ccc(O)cc4)oc4cc(O)cc(O)c4c3=O)[C@H](O)[C@@H](O)[C@@H]2O)[C@H](O)[C@H](O)[C@H]1O", "note": "[NICOTIFLOROSIDE]", "values": [{"measurement": "PC50", "setting": "[1]", "value": 67.1, "unit": "µM"}, {"measurement": "Activity", "setting": "[2]", "value": "Non-Toxic"}]}
{"compound": "C[C@@H]1O[C@@H](Oc2c(-c3ccc(O)cc3)oc3cc(O)cc(O)c3c2=O)[C@H](O)[C@H](O)[C@H]1O", "note": "[AFZELIN]", "values": [{"measurement": "PC50", "setting": "[1]", "value": 8.9, "unit": "µM"}, {"measurement": "Activity", "setting": "[2]", "value": "Non-Toxic"}]}
{"compound": "C=C(C)[C@@H]1CC[C@]2(CO)CC[C@]3(C)[C@H](CC[C@@H]4[C@@]5(C)CC[C@H](O)C(C)(C)[C@@H]5CC[C@]43C)[C@@H]12", "note": "[BETULIN]", "values": [{"measurement": "PC50", "setting": "[1]", "value": 8.4, "unit": "µM"}, {"measurement": "Activity", "setting": "[2]", "value": "Non-Toxic"}]}
{"compound": "CC[C@H](/C=C/[C@@H](C)[C@H]1CC[C@H]2C3=CC[C@H]4C[C@@H](O)CC[C@]4(C)[C@H]3CC[C@]12C)C(C)C", "values": [{"measurement": "PC50", "setting": "[1]", "value": 58.1, "unit": "µM"}, {"measurement": "Activity", "setting": "[2]", "value": "Non-Toxic"}]}
{"compound": "C=C(C)[C@@H]1CC[C@]2(C)CC[C@]3(C)[C@H](CC[C@@H]4[C@@]5(C)CC[C@H](O)C(C)(C)[C@@H]5CC[C@]43C)[C@@H]12", "note": "[LUPEOL]", "values": [{"measurement": "PC50", "setting": "[1]", "value": 38.6, "unit": "µM"}, {"measurement": "Activity", "setting": "[2]", "value": "Non-Toxic"}]}
{"compound": "C[C@@H]1O[C@@H](O[C@H]2[C@H](Oc3c(-c4ccc(O)cc4)oc4cc(O)cc(O)c4c3=O)O[C@H](CO)[C@@H](O)[C@@H]2O)[C@H](O)[C@H](O)[C@H]1O", "values": [{"measurement": "PC50", "setting": "[1]", "value": 17.4, "unit": "µM"}, {"measurement": "Activity", "setting": "[2]", "value": "Non-Toxic"}]}
{"compound": "O=c1c(O)c(-c2ccc(O)c(O)c2)oc2cc(O)cc(O)c12", "note": "[QUERCETIN]", "values": [{"measurement": "PC50", "setting": "[1]", "value": 21.8, "unit": "µM"}, {"measurement": "Activity", "setting": "[2]", "value": "Non-Toxic"}]}
{"compound": "O=c1c(O[C@@H]2O[C@H](CO)[C@@H](O)[C@H](O)[C@H]2O)c(-c2ccc(O)c(O)c2)oc2cc(O)cc(O)c12", "note": "[ISOQUERCETIN]", "values": [{"measurement": "PC50", "setting": "[1]", "value": ">100", "unit": "µM"}, {"measurement": "Activity", "setting": "[2]", "value": "Non-Toxic"}]}
{"compound": "O=C(CCc1ccc(O)cc1)c1ccc(O[C@@H]2O[C@H](CO)[C@@H](O)[C@H](O)[C@H]2O)cc1O", "note": "[CONFUSOSIDE]", "values": [{"measurement": "PC50", "setting": "[1]", "value": 82.6, "unit": "µM"}, {"measurement": "Activity", "setting": "[2]", "value": "Non-Toxic"}]}
{"compound": "O=C(/C(O)=C/c1ccc(O)c(O)c1)c1ccc(O[C@H]2COC(=O)[C@@H]2O)cc1O", "values": [{"measurement": "PC50", "setting": "[1]", "value": ">100", "unit": "µM"}, {"measurement": "Activity", "setting": "[2]", "value": "Non-Toxic"}]}
